Key:
[1] = target: T1, Dual serine/threonine and tyrosine protein kinase (Homo sapiens) (UniProt Q6XUX3); assay: Inhibition of RIPK5 (unknown origin) assessed as residual activity at 100 nM by KINOMEscan analysis relative to control
T1 sequence (whole entry): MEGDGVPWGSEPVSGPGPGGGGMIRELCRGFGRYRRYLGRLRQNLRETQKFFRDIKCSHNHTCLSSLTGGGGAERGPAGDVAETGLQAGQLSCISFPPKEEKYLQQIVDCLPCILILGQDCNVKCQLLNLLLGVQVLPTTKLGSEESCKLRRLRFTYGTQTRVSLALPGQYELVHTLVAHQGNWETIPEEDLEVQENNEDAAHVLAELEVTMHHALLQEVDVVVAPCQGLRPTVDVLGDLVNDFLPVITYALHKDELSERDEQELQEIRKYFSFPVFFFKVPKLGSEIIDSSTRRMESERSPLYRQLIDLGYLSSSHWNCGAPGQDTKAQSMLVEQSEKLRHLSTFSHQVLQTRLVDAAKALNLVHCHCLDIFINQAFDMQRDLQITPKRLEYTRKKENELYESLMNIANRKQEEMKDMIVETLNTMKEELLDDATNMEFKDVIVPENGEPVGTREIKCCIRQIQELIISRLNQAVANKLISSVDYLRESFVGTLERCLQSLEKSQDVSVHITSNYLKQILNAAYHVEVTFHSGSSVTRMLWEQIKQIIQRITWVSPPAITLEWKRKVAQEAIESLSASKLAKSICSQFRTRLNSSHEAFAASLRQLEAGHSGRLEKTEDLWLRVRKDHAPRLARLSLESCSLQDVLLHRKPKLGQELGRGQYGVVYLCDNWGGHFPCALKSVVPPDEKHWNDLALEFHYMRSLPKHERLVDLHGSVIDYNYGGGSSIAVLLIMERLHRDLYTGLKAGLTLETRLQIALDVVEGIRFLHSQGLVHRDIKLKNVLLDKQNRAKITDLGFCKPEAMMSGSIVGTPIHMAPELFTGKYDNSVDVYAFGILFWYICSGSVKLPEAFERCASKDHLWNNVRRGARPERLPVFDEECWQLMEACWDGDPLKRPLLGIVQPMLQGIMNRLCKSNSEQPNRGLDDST

[2] = target: T2, Serine/threonine-protein kinase DCLK1 (Homo sapiens) (UniProt O15075); assay: Inhibition of DCAMKL1 (unknown origin) assessed as residual activity at 100 nM by KINOMEscan analysis relative to control
T2 sequence (whole entry): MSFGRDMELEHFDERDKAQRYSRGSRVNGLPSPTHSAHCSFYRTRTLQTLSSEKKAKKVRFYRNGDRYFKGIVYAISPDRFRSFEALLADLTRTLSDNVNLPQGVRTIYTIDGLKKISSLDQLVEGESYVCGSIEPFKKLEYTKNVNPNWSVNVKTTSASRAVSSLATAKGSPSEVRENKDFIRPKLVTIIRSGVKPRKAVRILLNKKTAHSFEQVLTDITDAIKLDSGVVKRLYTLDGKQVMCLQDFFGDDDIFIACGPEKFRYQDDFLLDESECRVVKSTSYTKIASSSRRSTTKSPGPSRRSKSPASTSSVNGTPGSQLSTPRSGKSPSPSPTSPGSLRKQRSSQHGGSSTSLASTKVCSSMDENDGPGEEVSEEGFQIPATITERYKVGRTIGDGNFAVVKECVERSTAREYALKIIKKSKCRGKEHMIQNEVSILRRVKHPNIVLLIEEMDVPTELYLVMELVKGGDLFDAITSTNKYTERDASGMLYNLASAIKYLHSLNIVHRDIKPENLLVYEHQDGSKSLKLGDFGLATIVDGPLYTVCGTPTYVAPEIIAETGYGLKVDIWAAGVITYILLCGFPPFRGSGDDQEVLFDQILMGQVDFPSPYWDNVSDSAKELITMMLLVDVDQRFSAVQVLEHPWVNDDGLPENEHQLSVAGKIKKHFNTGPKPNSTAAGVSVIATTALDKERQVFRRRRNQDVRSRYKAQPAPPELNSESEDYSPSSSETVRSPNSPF

[3] = target: T3, Protein kinase C iota type (Homo sapiens) (UniProt P41743); assay: Inhibition of PRKCI (unknown origin) assessed as residual activity at 100 nM by KINOMEscan analysis relative to control
T3 sequence (whole entry): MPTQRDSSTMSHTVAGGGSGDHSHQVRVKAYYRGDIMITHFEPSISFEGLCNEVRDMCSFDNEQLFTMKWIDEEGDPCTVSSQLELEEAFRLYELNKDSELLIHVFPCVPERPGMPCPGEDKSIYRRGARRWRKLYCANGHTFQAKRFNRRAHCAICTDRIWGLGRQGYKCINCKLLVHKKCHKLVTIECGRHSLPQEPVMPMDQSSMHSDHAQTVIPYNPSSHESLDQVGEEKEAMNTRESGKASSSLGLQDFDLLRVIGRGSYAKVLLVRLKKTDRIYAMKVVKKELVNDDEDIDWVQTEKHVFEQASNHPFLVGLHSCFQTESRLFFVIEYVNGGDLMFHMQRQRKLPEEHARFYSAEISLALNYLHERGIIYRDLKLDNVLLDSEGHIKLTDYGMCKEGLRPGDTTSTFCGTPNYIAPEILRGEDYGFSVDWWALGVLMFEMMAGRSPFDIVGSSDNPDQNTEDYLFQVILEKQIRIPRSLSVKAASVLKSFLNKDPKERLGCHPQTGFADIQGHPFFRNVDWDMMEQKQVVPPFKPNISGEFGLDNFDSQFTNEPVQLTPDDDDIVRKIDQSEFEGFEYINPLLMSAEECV

`COc1cc2ncnc(N[C@H](C)c3cccc4ccccc34)c2cc1OC` showed an Activity [1] of 96%, an Activity [2] of 86% and an Activity [3] of 84%.

From ChEMBL document CHEMBL5678818, “Discovery of potent SOS1 inhibitors that block RAS activation via disruption of the RAS-SOS1 interaction” (Proc Natl Acad Sci U S A, 2019)
